# Assay results as given in US20250352520A1, “USE OF DEXPRAMIPEXOLE FOR THE TREATMENT OF EOSINOPHILIC COPD” (Areteia Therapeutics, Inc., priority 2024, published 2025).
# Where two headings read alike, the source gives them in different places.
# Legend:
# [1] = across the dose groups at various time-points
# [2] = test system: eosinophils in blood and airways; conditions: 150 mg BID dexpramipexole dihydrochloride; up to approximately
# [3] = for CT Scan - Mucus Score, Change from Baseline / CT Scan - Mucus Score, Result: Week 16
# Description: Mucus dysfunction, a central pathology in patients with COPD, is characterized by excess mucus production, hypersecretion, and reduced clearance, leading to accumulation in the airways as mucus plugs. Computed tomography (CT) scans of individuals with COPD can be assessed by a physician or clinician trained in lung imaging. Mucus plug scoring is assigned based on the number of lung segments with mucus plugs, ranging from 0 (no mucus plugs seen on CT scan) to 20 (all lung segments with mucus plugs).
# All eligible participants received inspiratory and expiratory CT scans at Baseline and at Week 16 to assess for changes in mucus plugs and airway architecture (e.g., changes in airway wall thickness).
# […] underwent at CT scan with mucus plug scoring.
structure (smiles),measurement,setting,value
"CCCN[C@@H]1CCc2nc(N)sc2C1 [Dexpramipexole, (6R)-2-amino-4,5,6,7-tetrahydro-6-(propylamino)benzothiazole]",placebo-corrected change from baseline in pre-BD FEV1,[1],clinically meaningful
same,reductions of eosinophils in blood and airways,[2],≤ 80%
same,"CT Scan - Mucus Score, Change from Baseline",[3]; Subject ID 10001-001-0001,0.00
same,"CT Scan - Mucus Score, Result",[3]; Subject ID 10001-001-0001,1.00
same,"CT Scan - Mucus Score, Change from Baseline",[3]; Subject ID 10001-001-0002,0.00
same,"CT Scan - Mucus Score, Result",[3]; Subject ID 10001-001-0002,0.00
same,"CT Scan - Mucus Score, Change from Baseline",[3]; Subject ID 10001-008-0002,3.00
same,"CT Scan - Mucus Score, Result",[3]; Subject ID 10001-008-0002,3.00
same,"CT Scan - Mucus Score, Change from Baseline",[3]; Subject ID 10001-010-0005,0.00
same,"CT Scan - Mucus Score, Result",[3]; Subject ID 10001-010-0005,0.00
same,"CT Scan - Mucus Score, Change from Baseline",[3]; Subject ID 10001-022-0001,−4.00
same,"CT Scan - Mucus Score, Result",[3]; Subject ID 10001-022-0001,0.00
same,"CT Scan - Mucus Score, Change from Baseline",[3]; Subject ID 10001-022-0006,3.00
same,"CT Scan - Mucus Score, Result",[3]; Subject ID 10001-022-0006,6.00
same,mucus plug score,"[3]; one patient, week 16, score of 4 at baseline",0
